Source: patent US20100168112A1, “2-Substituted and 4-substituted aryl nitrone compounds” (RENOVIS, INC., priority 2004, published 2010)

Assays:
CCI rats = assay: Mechanical allodynia in mononeuropathic pain model (chronic constrictive injury, CCI, Bennett model); format: in vivo, SD rats; details: for PWT ipsilateral hind paw (von Frey): 50 mg/kg p.o. single dose, mean ± SEM; for anti-allodynic effect on ipsilateral hind paw vs vehicle (in words): single dose 50 mg/kg, p.o.
Description: Adult male SD rats weighing 250-300 gm (Charles River Laboratories, San Diego, Calif.) were used. The animal room was lighted artificially at a 12-hr light-dark cycle (7:00 A.M. to 7:00 P.M) with water and food supply ad libitum. Animals were allocated randomly into groups. Seven days before establishing the mononeuropathic pain disease model, rats were trained on a metal mesh floor, covered with a plastic box (10×10×18 cm) 1-2 hr per day to habituate. During the habituating phase, non-painful tactile stimulation on the plantar surface of each hind paw was induced by a set of calibrated von Frey filaments, through the mesh floor, as described in example 2.
Following the 7-day training phase, the animals were anesthetized by i.p. injection of sodium pentobarbital (65 mg/kg, Abbott Lab, Chicago, Ill.). Under aseptic procedures, the skin of the left thigh was cut open for ˜2 cm. Mid-thigh level of the common sciatic nerve was exposed after blunt separation of the muscles. Two 4-0 silk and one 4-0 chromic gut sutures (both from Ethicon, Somerville, N.J.) were loosely ligated around the nerve, with a 1-1.5 mm interval between each of them. Skin wound was then close with wound clips. The right side (i.e., the contralateral side) was not surgically injured. After recovery from surgery, rats showing post-surgery neurological deficits or poor grooming were excluded from the experiments. This surgical procedure (i.e., chronic constrictive injury, CCI, or Bennett model) to establish mononeuropathic pain disease model has been described elsewhere (Bennett, G. J. and Xie, Y. K.: A peripheral mononeuropathy in rat that produces disorders of pain sensation like those seen in man. Pain, 33: 87-107, 1988).
On days 1, 3, 4, 7, 9, 11, and 14 after surgery, animals were tested for mechanical allodynia with von Frey filaments as described previously. On or around post-surgical day 14, the ipsilateral hind paw, felt to 5 grams, an indication of allodynia began to manifest mechanical allodynia (i.e., amplified response to non-painful tactile stimulation by von Frey filaments). The contralateral hind paws remained above the 5-gram level (i.e., no allodynia).
After manifestation of this allodynia, Compound 62 (50 mg/kg, p.o.), Compound 63 (50 mg/kg, p.o.), Compound 66 (50 mg/kg, p.o.), Compound 23 (50 mg/kg, p.o.), 4-hydroxy-tempol (TEMPOL, 50 mg/kg, p.o.), or piroxicam (a COX1 inhibitor, 50 mg/kg, p.o.) were administered to randomly-assigned animals. Changes of mechanical allodynia in the ipsilateral hind paw were recorded at several time points over the course of up to 24 hr.

[1] = Microsomal stability in rat liver microsomes; format: in vitro ADME; details: rat liver microsomes 0.5 mg/ml, 1 mM NADPH, ~500 ng/ml compound, 37° C.
Protocol: Frozen Sprague-Dawley rat liver microsomes (RLM) were thawed on ice and gently mixed before use. The final reaction mixture consisted of a nitrone compound of this invention (at ˜500 ng/ml), 1 mM NADPH, and 0.5 mg/ml of RLM protein in 0.1 M PBS (pH7.4), with organic solvent concentration not exceeding 1% (v/v). Per set of incubations, a positive control compound was included. The mixture was first pre-incubated 3 to 5 minutes at 37° C. without NADPH, and the reaction was then initialized by the addition of NADPH and incubated at 37° C. for up to 30 minutes. An aliquot of the reaction mixture was sampled at the initiation of the reaction and at designated time after reaction started. The drawn samples were quenched with acetonitrile, diluted with mobile phase to ensure the detection of test article in the linear range, and analyzed by LC/MS/MS. Half-life or percentage of remaining nitrone compound was calculated using standard methods. A similar method, or a slight variation of it, was used to test the stability of nitrones in human liver microsomes (HLM).

[2] = Microsomal stability in human liver microsomes; format: in vitro ADME; details: NADPH, 37° C.
In short: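 Compound (~500 ng/ml) incubated at 37°C for up to 30 min with 0.5 mg/ml microsomal protein and 1 mM NADPH in 0.1 M PBS pH7.4, after 3–5 min preincubation without NADPH. Sprague-Dawley rat or human microsomes; acetonitrile-quenched timepoints analysed by LC/MS/MS for half-life or percent remaining.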

[3] = test system: carrageenan-sensitized inflammatory model of rat; assay: Carrageenan-sensitized thermal hyperalgesia (Hargreaves test); format: in vivo; details: 50 mg/kg oral; for PWL (thermal paw withdrawal latency), carrageenan paw: mean ± SEM
Protocol: In this experiment, animals were habituated to the test environment for 2 days. Each rat was individually placed on a transparent perplex glass floor, covered with a plastic box (10×10×18 cm), and allowed 0.5-1 hr to habituate. After the acclimation period, basal thermal withdrawal latency (PWL, time interval between heat stimulation and paw withdrawal) was measured by exposing the plantar surface of a rats hind paw to a beam of radiant heat generated from a focused projection bulb through a transparent perplex glass surface (Hargreaves test; Hargreaves, K. R., Dubner, R., Brown, F., Flores, C. & Joris, J.: A new and sensitive method for measuring thermal nociception in cutaneous hyperalgesia. Pain, 32: 77-88, 1988). The PWL was averaged from at least two trials separated by a 2 min interval. A timer was used to measure the withdrawal latency and a cut of time of 20-sec was used to prevent tissue damage. Before the test on STZ-diabetic rats, the intensity of the radiating heat was adjusted to the level that caused naive animal to withdraw its paw at around 10 seconds.
After a stable basal PWL was obtained, the animals were briefly anesthetized with isoflurane (2-5% to effect). One side of their hind paws received an intraplantar injection of lambda carrageenan (2 mg in 100 microliter sterile saline, Sigma, St. Louis, Mo.). The contralateral side received no injection and served as an intra-subject control. The animals were then returned to their home cages and transferred to the individual testing chambers for heat thermal hyperalgesic testing, 2.5 hr after carrageenan injection. 3-hr post-carrageenan injection, PWLs of both hind paws (i.e., ipsilateral and contralateral) were measured at several time points post-carrageenan injection (15-min to 24-hr).
For compound testing, rats were randomly enrolled into groups that, immediately after the 3-hr post-carrageenan PWL was obtained, received oral dosing of Compound 62 (50 mg/kg), Compound 63 (50 mg/kg), vehicle (1 ml/kg), or indomethacin (30 mg/kg). Compound 62 and Compound 63 were prepared as a suspension in vehicle (96% of 0.5% CMC and 4% of 10% Tween 80) while indomethacin was prepared as a 30 mg/ml in normal saline.

[4] = post-dosing time −15 min (pre-dose)
[5] = post-dosing time 0 min (3 hr post-carrageenan)

| % of Nitrone Remaining at 30 min (Rat) [1] | % of Nitrone Remaining at 30 min (Human) [2] | SMILES | PWT ipsilateral hind paw (von Frey) (CCI rats; post-dosing time 30 min) | PWT ipsilateral hind paw (von Frey) (CCI rats; post-dosing time 60 min) | PWT ipsilateral hind paw (von Frey) (CCI rats; post-dosing time 300 min) | PWT ipsilateral hind paw (von Frey) (CCI rats; post-dosing time 1440 min) | PWT ipsilateral hind paw (von Frey) (CCI rats; [4]) | anti-allodynic effect on ipsilateral hind paw vs vehicle (in words) (CCI rats) | PWT ipsilateral hind paw (von Frey) (CCI rats; post-dosing time 5 min) | PWT ipsilateral hind paw (von Frey) (CCI rats; post-dosing time 120 min) | PWT ipsilateral hind paw (von Frey) (CCI rats; post-dosing time 240 min) | PWT ipsilateral hind paw (von Frey) (CCI rats; post-dosing time 360 min) | effect on carrageenan-sensitized heat hyperalgesia compared to vehicle-treated carrageenan-paw (in words) [3] | PWL (thermal paw withdrawal latency), carrageenan paw [3, 5] | PWL (thermal paw withdrawal latency), carrageenan paw ([3]; post-dosing time 15 min) | PWL (thermal paw withdrawal latency), carrageenan paw ([3]; post-dosing time 120 min) | PWL (thermal paw withdrawal latency), carrageenan paw ([3]; post-dosing time 240 min) | PWL (thermal paw withdrawal latency), carrageenan paw ([3]; post-dosing time 1400 min) | PWL (thermal paw withdrawal latency), carrageenan paw ([3]; post-dosing time 60 min) | PWL (thermal paw withdrawal latency), carrageenan paw ([3]; post-dosing time 180 min) |
| --- | --- | --- | --- | --- | --- | --- | --- | --- | --- | --- | --- | --- | --- | --- | --- | --- | --- | --- | --- | --- |
| – | – | CC(C)(C)/[N+]([O-])=C/c1ccc(S(=O)(=O)N2CCOCC2)cc1 [Compound 23, N-(tert-Butyl)-C-[4-(morpholine-4-sulfonyl)phenyl]nitrone] | 7.67 ± 0.80 gm | 8.17 ± 1.52 gm | 4.43 ± 1.35 gm | 4.67 ± 0.84 gm | 2.43 ± 0.54 gm | statistically significant anti-allodynic effects | – | – | – | – | – | – | – | – | – | – | – | – |
| – | – | CC(C)(C)/[N+]([O-])=C/c1ccccc1S(C)(=O)=O [Compound 66, N-tert-Butyl-C-(2-methanesulfonylphenyl)nitrone] | 5.33 ± 0.42 gm | 4.12 ± 0.91 gm | 5.33 ± 1.12 gm | 1.57 ± 0.23 gm | 1.97 ± 0.84 gm | no significant anti-allodynic effect | – | – | – | – | – | – | – | – | – | – | – | – |
| 100% | 100% | CCS(=O)(=O)c1ccc(/C=[N+](\[O-])C(C)(C)C)c(S(=O)(=O)CC)c1 [Compound 64, N-tert-Butyl-C-(2,4-bis-ethanesulfonylphenyl)nitrone] | – | – | – | – | – | – | – | – | – | – | – | – | – | – | – | – | – | – |
| 100% | 100% | CC(C)(C)/[N+]([O-])=C/c1ccc(S(C)(=O)=O)cc1 [Compound 62, N-tert-Butyl-C-[4-(methanesulfonyl)phenyl]nitrone] | – | – | – | 3.43 ± 1.02 gm | 3.17 ± 1.10 gm | rapid onset but short-lasting anti-allodynic effect | 2.86 ± 0.94 gm | 16.71 ± 3.44 gm | 15.14 ± 3.90 gm | 5.46 ± 1.46 gm | statistically significant effect | 4.65 ± 0.63 s | 7.33 ± 1.43 s | 7.55 ± 1.08 s | 5.38 ± 1.11 s | 5.33 ± 1.09 s | – | – |
| 97% | 99% | CC(C)(C)/[N+]([O-])=C/c1ccc(S(C)(=O)=O)cc1S(C)(=O)=O [Compound 63, N-tert-Butyl-C-(2,4-bis-methanesulfonylphenyl)nitrone] | 18.4 ± 10.42 gm | 18.8 ± 11.29 gm | 5.20 ± 1.63 gm | 3.60 ± 1.30 gm | 3.88 ± 0.97 gm | produced anti-allodynic effects on ipsilateral hind paws | – | – | – | – | statistically significant effect | 4.98 ± 0.85 s | 4.93 ± 1.22 s | – | – | 5.70 ± 0.71 s | 4.15 ± 1.04 s | 3.65 ± 0.64 s |
